Like-named read-outs stand apart in the source and are kept apart here.

For series [1] the following is noted: statement without test; cited from earlier work.
The nature of series [2]: Pharmacokinetics of nicotine tartrate after IV and Eudragit coated delayed release oral (DRO) capsules (Example 5). Here is the method:
Delayed-release Eudragit™ coated oral nicotine capsules were prepared by Tillotts Pharma AG, Ziefen, Switzerland and consisted of either 3 mg or 6 mg of nicotine (8.887 mg or 17.774 mg nicotine tartrate base salt, respectively). The nicotine salt was suspended in an excipient (a saturated polyglycolized glyceride; Gelucire™ 44/14, (supplied by Gattefosse France) (190 mg or 380 mg respectively) and filled into hard gelatine capsules (size 1). The capsules were then coated with Eudragit™ L30D. Eudragit™ L30D is a polymer which dissolves at about pH 6.8 in the ileum. The size of the capsule and the thickness of the Eudragit coating are similar to those used to deliver Asacol™ (Eudragit coated mesalamine) to the terminal ileum (Schroeder et al., NEJM, 317:1625-9 (1987)).
Delayed-release Eudragit coated oral nicotine/carbomer capsules were prepared by Tillotts Pharma. Nicotine/carbomer powder (1:50--nicotine carbomer) was coated with Eudragit™ L, S or LS. The coated powder was then formed into spherules, coated with Eudragit S and filled into hard gelatine capsules (size 1). The capsules were then coated with Eudragit™ L30D. In one example, the capsules contained 150 mg nicotine-carbomer complex, equivalent to 3 mg nicotine base.
The aim of this study was to determine nicotine tartrate pharmacokinetics after administration by: IV, and 3 mg and 6 mg Eudragit S coated delay release oral (DRO) capsules.
Each subject had 2 studies [DRO and 15 μg/kg (mean 1 mg) IV] separated by >1 week with the order (IV vs DRO first) randomly assigned. After nicotine administration, blood was obtained for 12 hours and serum nicotine was determined by gas chromatography/mass spectrometry. Plasma cotinine concentrations were determined HPLC in 2 subjects (both 6 mg) over 72 hours. Pharmacokinetic parameters determined were: maximum concentration (Cmax); time to Cmax (Tmax); area under the curve (AUC); bioavailability (F); volume of distribution (Vdss); clearance (CL); and half-life (T1/2).
Delayed-release Eudragit coated oral nicotine capsules were prepared in accordance with Example 3, Part A.
Delayed-release Eudragit coated oral nicotine/Carbopol capsules were prepared in accordance with Example 3, Part B.

For series [3] the following is noted: oral, 45 micrograms nicotine base/kg, previous study (Benowitz et al.); cited from earlier work.
Series [4] is described as follows: Side effects after nicotine/Carbopol enema in healthy volunteers and patients with active UC (Example 6). Format: in vivo, human. The protocol: Eight normal healthy volunteers and 8 patients with active UC were enrolled in this open label, single dose study.
The nicotine content of sample enemas was first confirmed by diluting a small volume of the contents in dilute hydrochloric acid to produce an approximate concentration of 30 ng/ml, which could then be accurately measured by our assay.
Side-effect experienced by the subjects were recorded as absent, mild, moderate or severe. Subjects were asked to report the time, nature and severity of any symptoms, at the commencement and each hour through the study, and were questioned particularly about nausea, vomiting, light-headedness, tremor, palpitations and headache. Blood pressure and pulse rate were also recorded each hour and when any symptoms occurred.

The conditions of series [5]: cited from earlier work.
For series [6] the following is noted: human, in vivo; cited from earlier work.
The nature of series [7]: Pharmacokinetics of nicotine after IV, oral and enema administration (Example 4). The protocol:
Intravenous nicotine was prepared using a nicotine base, supplied as the tartrate salt (Fisher Scientific/Eastman Kodak Company, Rochester, N.Y.). Solutions for injection were made up by combining 1.5 mg nicotine base (4.44 mg tartrate salt) in 100 ml of 0.9% sterile normal saline to form a 15 mcg/mL solution. The intravenous solution was filtered through a 0.22 micron filter into a sterile container and under sterile conditions. The solution was then cultured for organisms, assayed for endotoxin, and chemically analyzed prior to infusion to assure stable nicotine concentration. These samples were then be stored in sealed vials until the time of administration.
The oral preparation was formed by dissolving 45 micrograms nicotine base/kg body weight (133.3 micrograms tartrate salt/kg body weight) in 30 ml purified water.
The sorbitol was added to make the vehicle isoosmolar and the carboxymethylcellulose was used as a suspending agent.
Thirty paid human volunteers were admitted to the pharmacokinetic study after giving informed consent to a protocol approved by the institutional review board at the Mayo Clinic, Rochester, Minn. The subjects ranged in age from 21-56 and their body weights ranged from 45 to 153 Kg. All subjects were non-smokers and were healthy based on their histories, and physical examination. Subjects agreed to practice birth control during the study period. Complete blood count, chemistry group, urinalysis and pregnancy test (women only) were obtained. Subjects were excluded if they had cardiovascular disease, peripheral vascular disease, hypertension, were nursing mothers, had laboratory evidence of pregnancy, or had hepatic or renal dysfunction.
Each subject underwent 2 investigations (IV and non-IV) of 8 hours duration at least 1 week apart. During the IV visit, subjects were given a 15-30 minute infusion of the IV nicotine solution (15 mcg/Kg dose). […] On each study day, venous blood samples were drawn from an IV catheter into standard chemistry vacutainer tubes. Samples were obtained before nicotine administration and at the following time points (time=0 was defined as the point at which the nicotine infusion was started or the non-IV dose was administered): 5, 10, 15, 30, 60, 90 minutes, and 2, 3, 4, 5, 6, and 8 hours. Whole blood samples were centrifuged and plasma samples were then stored at -20 degrees Celsius until analysis. Plasma concentrations of nicotine were determined by gas chromatography/mass spectrometry as described by Baskin et al. (Clin. Chem., 31:76-80 (1991)).
For this study, the maximum plasma nicotine concentration (Cmax) and the time to reach Cmax (Tmax) were defined as the highest measured plasma concentrations and the time of the sample, respectively. The following pharmacokinetics parameters were calculated using standard equations (Gibaldi (ed.) Pharmcokinetics 2nd ed, Marcel Dekker Inc., New York 409-17 (1982)): area under the plasma nicotine concentration versus time curve (AUC), bioavailability (F), blood elimination half-life (T1/2), volume of distribution (Vdss), and blood nicotine clearance (Clb).
The computed bioavailability for each subject was used in an analysis of covariance to compare the five groups. Within subject (IV versus non-IV) variation was evaluated for each group of 6 subjects using a paired-T test. In addition, data was reviewed for gender variation.

Series [8] in a line: Side effects of nicotine delivered to the intestine versus gum and patch. Particulars: absorbed through the intestinal mucosa; inventors' belief. Format: in vivo, human.
Series [9] in a line: Side effects by questionnaire versus plasma nicotine concentration (Example 4). Format: in vivo, human (healthy non-smoking volunteers). Here is the method:
However, the threshold above which symptoms appeared varied from individual to individual with the nicotine concentration at which side effects first appeared ranging from 2.4 ng/mL to 9.9 ng/mL (although some subjects had nicotine concentrations of >11 ng/mL without symptoms).

Series [10] has as its system cutaneous inflammatory response. Particulars: transdermal delivery system; cited from earlier work.

Take `CN1C(=O)CC[C@H]1c1cccnc1` [cotinine]: the “activity relative to nicotine” value in [1] was “less active metabolite than nicotine”.
In general, Tmax refers to the time from dosing to the highest level. The term half-life denotes the time needed for the level to fall by half in the phase considered. Low readings indicate rapid decline, high ones slow decline. The term AUC denotes the area under the concentration-time curve, a measure of exposure. Higher therefore signals more exposure. In general, bioavailability refers to the share of a dose that reaches the circulation, judged against a reference dose that is usually intravenous. A high value points to good availability. Take `CN1CCCC1c1cccnc1` (stereo not shown) [nicotine]: the first pass metabolism entry in series [2] (6 mg DRO versus IV) was “significant first pass metabolism”. Moreover, in series [2] (DRO route to the ileocolon), the systemic bioavailability entry was “reduced systemic bioavailability of nicotine”. The F in series [2] (IV 15 μg/kg (mean 1 mg), n=20) came to 100 ± 0%. In addition, in series [2] (human, in vivo, iv, […]), the time of peak concentration (Tmax) turned out to be 24 ± 6 min, the Vd is 2 ± 1 L/kg, the clearance is 16.7 mL/min/kg and the half-life is 60 ± 60 min. Also, the tolerability result in series [3] was “well-tolerated”. Also, the “rise in serum nicotine” value in [4] (administration to the colon) was “only modest rises in serum nicotine occur”. Besides, the tolerability entry in series [4] (human, in vivo) is “side effects were few and the preparation well tolerated”. Moreover, the “nicotine's stability” value in series [4] (phosphate buffer added, final pH of 5.5) is given as “increasing nicotine's stability”. Also, the “effect on cardiovascular system” value in [5] (in vivo) was “increased heart rate and blood pressure resulting in greater myocardial work and oxygen requirement and coronary vasocontriction”. Besides, the “effect on platelets and blood lipids” value in series [5] (purported) was “activate platelets and to adversely affect blood lipids”. The “response of Alzheimer's and Parkinson's disease patients” value in series [6] is reported as “beneficial response”. Besides, the Tmax in series [7] (human, plasma, iv, […]) was found to be 18 ± 6 min. Moreover, the AUC in [7] (human, plasma, iv, […], IV 15 mcg/kg over 15-30 min, n = 32, mean ± SD) was determined as 12 ± 5 ng·h/mL. In series [7] (human, plasma, po, […]), the time of peak concentration (Tmax) was determined as 66 ± 6 min and the bioavailability is 19%. For the same compound, the AUC in [7] (human, plasma, po, […], 45 mcg nicotine base/kg, n=6, analyzed on natural log scale) was determined as 9 ± 5 ng·h/mL. For the same compound, the “subjects with no detectable plasma levels” value in [7] (oral, 45 mcg/kg) came out at 2 subjects. The “time at which nicotine was first detected in plasma” value in series [7] (oral, 45 mcg/kg, when detectable) was determined as 30 min. Also, in series [7] (pilot study, two additional subjects, enema), the “colonic absorption, dependence on patient position” value is reported as “higher plasma levels detected when subjects were allowed into a sitting position immediately after administration”. Also, in series [8], the “bioavailability, cause” value is listed as “low bioavailability of nicotine absorbed through the intestinal mucosa appears to be largely due to its conversion to the major metabolite cotinine on first pass metabolism in the liver”. The “nicotine concentration without symptoms (some subjects)” value in series [9] (plasma) was greater than 11 ng/mL. Moreover, the “side effects, correlation with plasma nicotine concentrations” value in series [9] (questionnaire every 30 minutes) is given as “closely correlated with plasma nicotine concentrations”. In series [9] (variable frequency), the side effects observed result is “nausea lightheadedness, and diaphoresis”. In series [10], the “cutaneous inflammatory response to sodium lauryl sulphate and UVB radiation, and reactive hyperaemia” value is “suppress the cutaneous inflammatory response to sodium lauryl sulphate (irritant) and UVB radiation, as well as reactive hyperaemia following arterial occlusion”.
